Reference: ChEMBL document CHEMBL4265899, “Trisubstituted thiazoles as potent and selective inhibitors of Plasmodium falciparum protein kinase G (PfPKG)” (Bioorg Med Chem Lett, 2018)
Converted amounts (≈) assume the structure as drawn.

Columns and labels:
[1] = biological target: Mitogen-activated protein kinase 3 (Homo sapiens) (UniProt P27361); experiment: Inhibition of human ERK1 at 100 nM
[2] = biological target: Mitogen-activated protein kinase 1 (Homo sapiens) (UniProt P28482); experiment: Inhibition of human ERK2 at 100 nM
Plasmodium falciparum = experiment: Antimalarial activity against Plasmodium falciparum after 48 hrs by microbeta scintillation counting-based [3H]-hypoxanthine incorporation assay; type: functional, organism-based
[3] = Metabolic stability in human liver microsomes assessed as compound remaining after 40 mins; type: ADME, microsome; settings: read-out: Stability
[4] = Lipophilicity, log D of the compound at pH 7.4; settings: buffer
[5] = Kinetic solubility of the compound
[6] = biological target: Ribosomal protein S6 kinase alpha-1 (Homo sapiens) (UniProt Q15418); experiment: Inhibition of human RSK1 at 100 nM
[7] = biological target: RAC-alpha serine/threonine-protein kinase (Homo sapiens) (UniProt P31749); experiment: Inhibition of human PKBalpha at 100 nM
[8] = biological target: RAC-beta serine/threonine-protein kinase (Homo sapiens) (UniProt P31751); experiment: Inhibition of human PKBbeta at 100 nM
[9] = biological target: Rho-associated protein kinase 2 (Homo sapiens) (UniProt O75116); experiment: Inhibition of human ROCK2 at 100 nM
[10] = biological target: Serine/threonine-protein kinase N2 (Homo sapiens) (UniProt Q16513); experiment: Inhibition of human PRK2 at 100 nM
[11] = biological target: MAP kinase-interacting serine/threonine-protein kinase 1 (Homo sapiens) (UniProt Q9BUB5); experiment: Inhibition of human MNK1 at 100 nM
[12] = biological target: MAP kinase-interacting serine/threonine-protein kinase 2 (Homo sapiens) (UniProt Q9HBH9); experiment: Inhibition of human MNK2 at 100 nM
[13] = biological target: Calcium/calmodulin-dependent protein kinase kinase 2 (Homo sapiens) (UniProt Q96RR4); experiment: Inhibition of human CAMKKb at 100 nM
[14] = biological target: Serine/threonine-protein kinase Chk1 (Homo sapiens) (UniProt O14757); experiment: Inhibition of human CHK1 at 100 nM
[15] = biological target: Serine/threonine-protein kinase PLK1 (Homo sapiens) (UniProt P53350); experiment: Inhibition of human PLK1 at 100 nM
[16] = biological target: Aurora kinase A (Homo sapiens) (UniProt O14965); experiment: Inhibition of human Aurora A at 100 nM
[17] = biological target: MAP/microtubule affinity-regulating kinase 3 (Homo sapiens) (UniProt P27448); experiment: Inhibition of human MARK3 at 100 nM
[18] = biological target: Serine/threonine-protein kinase BRSK2 (Homo sapiens) (UniProt Q8IWQ3); experiment: Inhibition of human BRSK2 at 100 nM
[19] = biological target: Maternal embryonic leucine zipper kinase (Homo sapiens) (UniProt Q14680); experiment: Inhibition of human MELK at 100 nM
[20] = biological target: Casein kinase I isoform alpha (Homo sapiens) (UniProt P48729); experiment: Inhibition of human CK1 at 100 nM
[21] = biological target: Casein kinase 2 (Homo sapiens) (UniProt P67870+P68400+P19784+Q8NEV1); experiment: Inhibition of human CK2 at 100 nM; type: protein assay
[22] = biological target: Serine/threonine-protein kinase pim-1 (Homo sapiens) (UniProt P11309); experiment: Inhibition of human PIM1 at 100 nM
[23] = biological target: Homeodomain-interacting protein kinase 2 (Homo sapiens) (UniProt Q9H2X6); experiment: Inhibition of human HIPK2 at 100 nM
[24] = biological target: Proto-oncogene tyrosine-protein kinase Src (Homo sapiens) (UniProt P12931); experiment: Inhibition of human Src at 100 nM
[25] = biological target: Tyrosine-protein kinase CSK (Homo sapiens) (UniProt P41240); experiment: Inhibition of human CSK at 100 nM
[26] = biological target: Fibroblast growth factor receptor 1 (Homo sapiens) (UniProt P11362); experiment: Inhibition of human FGFR1 at 100 nM
[27] = biological target: Insulin receptor-related protein (Homo sapiens) (UniProt P14616); experiment: Inhibition of human IRR at 100 nM
[28] = biological target: Ephrin type-A receptor 2 (Homo sapiens) (UniProt P29317); experiment: Inhibition of human EPHA2 at 100 nM
[29] = biological target: Tyrosine-protein kinase Yes (Homo sapiens) (UniProt P07947); experiment: Inhibition of human YES1 at 100 nM
[30] = biological target: Ephrin type-B receptor 3 (Homo sapiens) (UniProt P54753); experiment: Inhibition of human EPHB3 at 100 nM
[31] = biological target: Serine/threonine-protein kinase TBK1 (Homo sapiens) (UniProt Q9UHD2); experiment: Inhibition of human TBK1 at 100 nM
[32] = biological target: Mitogen-activated protein kinase kinase kinase 11 (Homo sapiens) (UniProt Q16584); experiment: Inhibition of human MLK3 at 100 nM
[33] = biological target: Receptor tyrosine-protein kinase erbB-4 (Homo sapiens) (UniProt Q15303); experiment: Inhibition of human HER4 at 100 nM
[34] = biological target: Mitogen-activated protein kinase kinase kinase 7 (Homo sapiens) (UniProt O43318); experiment: Inhibition of human TAK1 at 100 nM
[35] = biological target: Mitogen-activated protein kinase kinase kinase 1 (Homo sapiens) (UniProt Q13233); experiment: Inhibition of human MEKK1 at 100 nM
Homo sapiens = species on record: Homo sapiens; settings: at 100 nM
Description: Inhibition of human PKA at 100 nM

[36] = biological target: T1, Inhibitor of nuclear factor kappa-B kinase subunit epsilon (Homo sapiens) (UniProt Q14164); settings: at 100 nM
T1 sequence (whole entry): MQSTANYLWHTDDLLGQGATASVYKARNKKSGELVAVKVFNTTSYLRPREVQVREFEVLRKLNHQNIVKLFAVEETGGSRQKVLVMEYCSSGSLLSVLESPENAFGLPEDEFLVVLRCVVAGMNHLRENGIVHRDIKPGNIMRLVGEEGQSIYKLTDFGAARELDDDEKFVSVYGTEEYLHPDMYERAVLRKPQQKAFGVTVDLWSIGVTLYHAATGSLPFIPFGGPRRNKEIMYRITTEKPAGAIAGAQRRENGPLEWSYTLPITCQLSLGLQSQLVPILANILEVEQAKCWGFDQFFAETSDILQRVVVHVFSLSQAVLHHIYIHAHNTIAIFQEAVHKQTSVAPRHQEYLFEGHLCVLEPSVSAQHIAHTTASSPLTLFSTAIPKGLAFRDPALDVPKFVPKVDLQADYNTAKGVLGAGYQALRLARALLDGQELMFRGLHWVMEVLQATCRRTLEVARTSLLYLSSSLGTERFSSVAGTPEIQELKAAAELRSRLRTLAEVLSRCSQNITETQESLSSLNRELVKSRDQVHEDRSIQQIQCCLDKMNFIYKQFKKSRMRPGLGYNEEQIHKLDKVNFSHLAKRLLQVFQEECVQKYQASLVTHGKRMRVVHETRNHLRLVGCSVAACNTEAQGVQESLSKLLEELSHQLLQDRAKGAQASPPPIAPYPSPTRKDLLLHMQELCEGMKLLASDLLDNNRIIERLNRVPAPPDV
Description: Inhibition of human IKKepsilon at 100 nM

Sequence of Aurora kinase A (Homo sapiens) (O14965 whole entry): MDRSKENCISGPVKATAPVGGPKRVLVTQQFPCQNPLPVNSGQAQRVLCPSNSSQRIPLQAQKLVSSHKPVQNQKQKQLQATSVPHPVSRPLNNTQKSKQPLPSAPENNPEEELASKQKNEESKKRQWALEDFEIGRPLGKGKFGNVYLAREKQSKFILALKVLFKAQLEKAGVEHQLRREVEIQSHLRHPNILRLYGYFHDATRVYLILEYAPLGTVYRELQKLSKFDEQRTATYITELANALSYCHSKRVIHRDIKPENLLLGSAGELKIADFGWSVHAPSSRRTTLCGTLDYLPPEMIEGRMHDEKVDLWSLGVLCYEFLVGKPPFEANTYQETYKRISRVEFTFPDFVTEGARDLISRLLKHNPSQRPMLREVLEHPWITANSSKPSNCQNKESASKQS
Sequence of Rho-associated protein kinase 2 (Homo sapiens) (O75116 whole entry, looked up): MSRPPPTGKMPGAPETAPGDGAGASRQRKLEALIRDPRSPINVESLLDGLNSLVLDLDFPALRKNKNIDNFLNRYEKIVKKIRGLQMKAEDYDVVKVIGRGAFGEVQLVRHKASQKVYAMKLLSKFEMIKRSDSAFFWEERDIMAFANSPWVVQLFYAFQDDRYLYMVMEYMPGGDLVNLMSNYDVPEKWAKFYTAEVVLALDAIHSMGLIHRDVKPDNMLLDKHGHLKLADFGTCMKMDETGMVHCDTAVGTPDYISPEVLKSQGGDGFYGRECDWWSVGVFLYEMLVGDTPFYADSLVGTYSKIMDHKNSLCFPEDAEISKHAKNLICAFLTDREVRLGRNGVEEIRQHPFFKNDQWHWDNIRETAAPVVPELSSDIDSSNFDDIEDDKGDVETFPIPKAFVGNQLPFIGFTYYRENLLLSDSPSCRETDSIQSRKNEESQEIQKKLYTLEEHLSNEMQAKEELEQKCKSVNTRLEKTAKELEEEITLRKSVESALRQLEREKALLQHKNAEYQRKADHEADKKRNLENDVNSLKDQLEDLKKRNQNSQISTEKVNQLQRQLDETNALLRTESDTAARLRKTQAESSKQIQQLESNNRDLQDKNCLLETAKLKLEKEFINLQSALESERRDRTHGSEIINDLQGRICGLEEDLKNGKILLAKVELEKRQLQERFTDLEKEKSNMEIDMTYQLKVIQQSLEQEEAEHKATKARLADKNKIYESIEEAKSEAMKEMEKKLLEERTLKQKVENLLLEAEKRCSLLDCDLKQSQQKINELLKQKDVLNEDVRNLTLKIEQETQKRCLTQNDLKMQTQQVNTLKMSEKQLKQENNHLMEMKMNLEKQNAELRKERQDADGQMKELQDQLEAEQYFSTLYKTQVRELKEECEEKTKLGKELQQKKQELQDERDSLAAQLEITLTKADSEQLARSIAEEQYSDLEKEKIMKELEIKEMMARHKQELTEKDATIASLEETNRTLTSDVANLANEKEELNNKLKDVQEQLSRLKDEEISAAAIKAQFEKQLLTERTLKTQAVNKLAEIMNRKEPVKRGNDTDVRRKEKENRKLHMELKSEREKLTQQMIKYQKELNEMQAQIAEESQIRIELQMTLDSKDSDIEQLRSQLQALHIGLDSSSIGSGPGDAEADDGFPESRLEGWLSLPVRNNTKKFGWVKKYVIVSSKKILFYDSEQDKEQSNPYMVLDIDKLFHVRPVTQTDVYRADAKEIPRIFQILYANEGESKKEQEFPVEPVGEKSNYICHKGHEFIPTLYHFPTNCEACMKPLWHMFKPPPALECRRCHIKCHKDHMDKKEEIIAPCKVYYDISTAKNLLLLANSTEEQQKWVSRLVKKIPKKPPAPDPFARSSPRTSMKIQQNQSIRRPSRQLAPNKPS
Sequence of Homeodomain-interacting protein kinase 2 (Homo sapiens) (Q9H2X6 whole entry, looked up): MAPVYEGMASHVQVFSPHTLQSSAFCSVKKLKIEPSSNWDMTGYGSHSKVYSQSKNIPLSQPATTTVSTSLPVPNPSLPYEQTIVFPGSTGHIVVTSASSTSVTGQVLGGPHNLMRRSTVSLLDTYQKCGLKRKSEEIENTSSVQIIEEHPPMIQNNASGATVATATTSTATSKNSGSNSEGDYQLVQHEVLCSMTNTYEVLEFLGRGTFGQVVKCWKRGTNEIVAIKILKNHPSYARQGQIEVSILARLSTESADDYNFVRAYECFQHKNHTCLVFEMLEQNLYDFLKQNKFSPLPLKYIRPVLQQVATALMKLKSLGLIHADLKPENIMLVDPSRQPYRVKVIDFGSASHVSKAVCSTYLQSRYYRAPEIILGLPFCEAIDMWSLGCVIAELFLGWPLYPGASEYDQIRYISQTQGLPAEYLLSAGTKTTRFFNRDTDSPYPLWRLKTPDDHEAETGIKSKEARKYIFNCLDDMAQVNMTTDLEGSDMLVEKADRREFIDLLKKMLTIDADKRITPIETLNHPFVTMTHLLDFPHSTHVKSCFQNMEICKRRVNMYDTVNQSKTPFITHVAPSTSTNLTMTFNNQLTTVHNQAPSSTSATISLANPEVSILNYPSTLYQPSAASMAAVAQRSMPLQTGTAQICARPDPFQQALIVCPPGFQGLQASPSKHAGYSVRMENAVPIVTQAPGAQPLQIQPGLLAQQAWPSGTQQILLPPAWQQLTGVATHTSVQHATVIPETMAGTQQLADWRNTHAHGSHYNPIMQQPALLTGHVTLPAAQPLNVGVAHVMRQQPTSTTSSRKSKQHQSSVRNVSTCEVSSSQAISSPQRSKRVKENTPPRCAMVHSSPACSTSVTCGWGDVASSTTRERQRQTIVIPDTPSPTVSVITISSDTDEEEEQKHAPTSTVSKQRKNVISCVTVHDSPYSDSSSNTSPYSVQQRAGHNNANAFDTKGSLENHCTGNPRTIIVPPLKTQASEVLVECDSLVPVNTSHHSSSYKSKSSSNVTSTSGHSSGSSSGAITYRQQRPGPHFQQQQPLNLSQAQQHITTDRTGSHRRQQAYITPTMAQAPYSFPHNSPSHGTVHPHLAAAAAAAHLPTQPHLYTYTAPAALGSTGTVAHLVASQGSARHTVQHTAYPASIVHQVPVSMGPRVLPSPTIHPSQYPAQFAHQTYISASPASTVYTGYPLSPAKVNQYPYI
Sequence of Mitogen-activated protein kinase 3 (Homo sapiens) (P27361 whole entry): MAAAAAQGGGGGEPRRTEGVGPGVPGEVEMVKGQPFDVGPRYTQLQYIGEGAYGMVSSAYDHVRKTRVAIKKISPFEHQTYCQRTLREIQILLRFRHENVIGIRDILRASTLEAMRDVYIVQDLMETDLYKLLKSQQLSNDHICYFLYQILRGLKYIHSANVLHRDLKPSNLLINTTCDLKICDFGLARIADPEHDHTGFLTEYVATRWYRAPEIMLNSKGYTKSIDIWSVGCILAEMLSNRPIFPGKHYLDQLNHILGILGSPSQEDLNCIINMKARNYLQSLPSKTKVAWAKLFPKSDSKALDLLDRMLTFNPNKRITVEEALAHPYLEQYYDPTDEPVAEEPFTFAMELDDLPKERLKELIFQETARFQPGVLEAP
Sequence of MAP kinase-interacting serine/threonine-protein kinase 2 (Homo sapiens) (Q9HBH9 whole entry, looked up): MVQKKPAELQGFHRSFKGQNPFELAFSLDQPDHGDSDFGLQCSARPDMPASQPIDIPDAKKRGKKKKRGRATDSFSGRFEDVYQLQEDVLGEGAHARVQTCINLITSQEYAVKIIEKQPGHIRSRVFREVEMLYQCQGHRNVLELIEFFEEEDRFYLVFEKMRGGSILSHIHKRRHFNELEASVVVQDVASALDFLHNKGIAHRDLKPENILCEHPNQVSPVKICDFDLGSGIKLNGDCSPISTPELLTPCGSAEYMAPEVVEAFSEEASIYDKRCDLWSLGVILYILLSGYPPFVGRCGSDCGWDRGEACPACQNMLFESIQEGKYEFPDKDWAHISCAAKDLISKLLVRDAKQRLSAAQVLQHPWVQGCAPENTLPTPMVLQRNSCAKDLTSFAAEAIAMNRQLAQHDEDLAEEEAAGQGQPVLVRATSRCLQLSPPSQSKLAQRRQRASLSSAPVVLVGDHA
Sequence of Mitogen-activated protein kinase kinase kinase 7 (Homo sapiens) (O43318 whole entry): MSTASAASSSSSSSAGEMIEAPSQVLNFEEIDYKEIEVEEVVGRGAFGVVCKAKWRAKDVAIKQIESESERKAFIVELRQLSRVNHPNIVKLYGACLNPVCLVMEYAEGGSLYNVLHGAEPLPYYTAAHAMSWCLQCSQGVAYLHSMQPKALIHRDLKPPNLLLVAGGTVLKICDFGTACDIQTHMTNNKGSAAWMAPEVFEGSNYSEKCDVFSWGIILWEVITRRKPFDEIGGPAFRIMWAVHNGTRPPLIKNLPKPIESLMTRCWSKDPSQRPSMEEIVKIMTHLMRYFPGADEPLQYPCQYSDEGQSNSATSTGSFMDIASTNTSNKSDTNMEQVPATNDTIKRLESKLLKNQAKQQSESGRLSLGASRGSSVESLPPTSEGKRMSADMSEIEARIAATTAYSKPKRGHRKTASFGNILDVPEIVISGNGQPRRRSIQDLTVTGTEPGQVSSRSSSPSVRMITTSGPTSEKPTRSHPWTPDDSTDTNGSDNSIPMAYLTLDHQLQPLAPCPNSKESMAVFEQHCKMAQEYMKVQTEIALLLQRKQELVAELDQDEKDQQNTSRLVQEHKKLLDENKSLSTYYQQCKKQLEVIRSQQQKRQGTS
Sequence of RAC-alpha serine/threonine-protein kinase (Homo sapiens) (P31749 whole entry): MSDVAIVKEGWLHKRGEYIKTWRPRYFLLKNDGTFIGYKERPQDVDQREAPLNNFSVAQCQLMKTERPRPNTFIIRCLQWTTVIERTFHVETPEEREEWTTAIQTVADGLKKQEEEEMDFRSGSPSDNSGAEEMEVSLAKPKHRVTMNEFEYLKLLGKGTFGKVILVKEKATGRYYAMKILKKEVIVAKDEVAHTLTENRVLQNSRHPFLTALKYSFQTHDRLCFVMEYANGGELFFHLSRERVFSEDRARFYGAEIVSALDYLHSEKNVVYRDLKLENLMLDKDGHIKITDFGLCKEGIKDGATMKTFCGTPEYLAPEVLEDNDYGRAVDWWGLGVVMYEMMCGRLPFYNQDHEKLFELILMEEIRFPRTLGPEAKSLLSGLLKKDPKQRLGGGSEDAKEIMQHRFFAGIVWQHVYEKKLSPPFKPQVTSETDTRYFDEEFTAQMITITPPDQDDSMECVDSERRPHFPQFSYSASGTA

Row | SMILES | inhibition [1] | inhibition [2] | EC50 (Plasmodium falciparum) | remaining at 40 min [3] | logD [4] | solubility kinetic [5] | inhibition [6] | inhibition [7] | inhibition [8] | inhibition [9] | inhibition [10] | inhibition [11] | inhibition [12] | inhibition [13] | inhibition [14] | inhibition [15] | inhibition [16] | inhibition [17] | inhibition [18] | inhibition [19] | other results
1 | CN1CCC(c2nc(-c3ccc(F)c(NS(C)(=O)=O)c3)c(-c3ccnc(NCC4CC4)n3)s2)CC1 | < 70% | < 70% | 113 nM | 95% | 1.9 | 190 µM (≈ 98.2 µg/mL) | < 70% | < 70% | < 70% | < 70% | < 70% | < 70% | < 70% | < 70% | < 70% | < 70% | < 70% | < 70% | < 70% | < 70% | inhibition [20]: < 70%; inhibition [21]: < 70%; inhibition [22]: < 70%; inhibition [23]: < 70%; inhibition [24]: < 70%; inhibition [25]: < 70%; inhibition [26]: < 70%; inhibition [27]: < 70%; inhibition [28]: < 70%; inhibition [29]: < 70%; inhibition [30]: < 70%; inhibition [31]: < 70%; inhibition [32]: < 70%; inhibition [33]: < 70%; inhibition [34]: < 70%; inhibition [35]: < 70%; inhibition (Homo sapiens): < 70%; inhibition [36]: < 70%
2 | CN1CCC(c2nc(-c3cccc(S(C)(=O)=O)c3)c(-c3ccnc(Nc4ccc(N5CCNCC5)cc4)n3)s2)CC1 | < 70% | < 70% | 105 nM | 84% | 0.3 | 208 µM (≈ 123 µg/mL) | < 70% | < 70% | < 70% | < 70% | < 70% | < 70% | < 70% | < 70% | < 70% | < 70% | < 70% | < 70% | < 70% | < 70% | inhibition [20]: < 70%; inhibition [21]: < 70%; inhibition [22]: < 70%; inhibition [23]: < 70%; inhibition [24]: < 70%; inhibition [25]: < 70%; inhibition [26]: < 70%; inhibition [27]: < 70%; inhibition [28]: < 70%; inhibition [29]: < 70%; inhibition [30]: < 70%; inhibition [31]: < 70%; inhibition [32]: < 70%; inhibition [33]: > 90%; inhibition [34]: < 70%; inhibition [35]: < 70%; inhibition (Homo sapiens): < 70%; inhibition [36]: < 70%
